Measured values taken from patent publication US20230329236A1, “HERBICIDAL PYRIMIDINE DERIVATIVES” (MoA Technology Limited, priority 2020, published 2023).

Tests used:
Details in all cases: 336 h, Table 3, post-emergence, 14±1 days post application
[1] = test system: Lolium multiflorum (LOLMU); assay: Post-emergence glasshouse test, visual injury, LOLMU; type: in vivo
Protocol: (§1) Seeds of a variety of test species are grown in a sandy loam soil mixture, Lolium multiflorum (LOLMU), Amaranthus retroflexus (AMARE), Echinochloa crus-gaffi (ECHCG), Veronica persica (VERPE), Glycine max (GLXMA), Oryza sativa (ORYSA), Zea mays (ZEAMX), spring wheat (TRZAS), Ipomoea hederacea (IPOHE), Ipomoea purpurea (PHBPU), Stellaria media (STEME), Solanum nigrum (SOLNI), Digitaria sanguinalis (DIGSA), Setaria italica (SETIT), Alopecurus myosuroides (ALOMY) and Avena fatua (AVEFA).
(§2) After sowing, at growth stage BBCH 12-14 (post-emergence), the plants are sprayed with an aqueous spray solution derived from the formulation of the technical active ingredient in acetone/water (50:50) solution containing 0.5% Tween 20 (polyoxyethlyene sorbitan monolaureate, CAS RN 9005-64-5). The test compounds are applied at the required concentration of active ingredient in g/ha. The test plants are then grown in a glasshouse under controlled environmental conditions and watered regularly as required. After 14±1 days post application (for post-emergence test), the test is evaluated by assessing the percentage damage caused to the plants in comparison with the untreated plots. The biological activities for post-emergence testing are shown below (Table 3 and Table 4) as a % visual injury.

[2] = test system: Echinochloa crus-gaffi (ECHCG); assay: Post-emergence glasshouse test, visual injury, ECHCG; type: in vivo, Echinochloa crus-galli
Protocol: as §1, §2

Veronica persica (VERPE) = assay: Post-emergence glasshouse test, visual injury, VERPE; type: in vivo
Protocol: as §1, §2

[3] = test system: Amaranthus retroflexus (AMARE); assay: Post-emergence glasshouse test, visual injury, AMARE; type: in vivo
Protocol: as §1, §2

Compound | pest or weed control at 125 g/ha [1] [%] | pest or weed control at 125 g/ha [2] [%] | pest or weed control at 125 g/ha (Veronica persica (VERPE)) [%] | pest or weed control at 125 g/ha [3] [%] | pest or weed control at 500 g/ha [1] [%] | pest or weed control at 500 g/ha [2] [%] | pest or weed control at 500 g/ha (Veronica persica (VERPE)) [%] | pest or weed control at 500 g/ha [3] [%] | other results
Cc1cc(-c2cnc(N3Cc4ccccc4C3=N)nc2C(C)C)on1 [Compound 121] | 0 | 20 | 0 | 30 |  |  |  |  | 
C=COCCCNc1ncc(-c2cc(C)no2)c(C(C)(C)C)n1 [Compound 33] |  |  |  |  | 0 | 70 | 0 | 80 | 
Cc1cc(-c2cnc(N3CCCCC3)nc2-c2ccc(C)o2)on1 [Compound 79] |  |  |  |  | 30 | 60 | 0 | 90 | 
Cc1cc(-c2cnc(N3CCN(c4ncccn4)CC3)nc2-c2ccc(C)o2)on1 [Compound 89] | 5 | 0 | 5 | 0 |  |  |  |  | 
Cc1cc(-c2cnc(NCCn3nccc3C)nc2C(C)C)on1 [Compound 41] |  |  |  |  | 30 | 60 | 50 | 95 | 
Cc1cc(-c2cnc(N)nc2-c2ccc(C)o2)on1 [Compound 2, 5-(3-methyl-1,2-oxazol-5-yl)-4-(5-methylfuran-2-yl)pyrimidin-2-amine] |  |  |  |  | 40 | 10 | 0 | 30 | 
Cc1cc(-c2cnc(N3CCC(C(N)=O)CC3)nc2C(C)(C)C)on1 [Compound 26] |  |  |  |  | 0 | 30 | 60 | 0 | 
Cc1cc(-c2cnc(NCc3ccc(F)cc3)nc2C(C)(C)C)on1 [Compound 47] |  |  |  |  | 0 | 50 | 80 | 40 | 
CCNc1ncc(-c2cc(C)no2)c(C(C)C)n1 [Compound 11] |  |  |  |  |  |  |  |  | pest or weed control at 250 g/ha ([1]; 250 g/ha): 0%; pest or weed control at 250 g/ha ([2]; 250 g/ha): 80%; pest or weed control at 250 g/ha (Veronica persica (VERPE); 250 g/ha): 70%; pest or weed control at 250 g/ha ([3]; 250 g/ha): 100%
Cc1cc(-c2cnc(NCc3cccc(F)c3)nc2C(C)C)on1 [Compound 17] |  |  |  |  |  |  |  |  | pest or weed control at 1000 g/ha ([1]; 1000 g/ha): 0%; pest or weed control at 1000 g/ha ([2]; 1000 g/ha): 80%; pest or weed control at 1000 g/ha (Veronica persica (VERPE); 1000 g/ha): 100%; pest or weed control at 1000 g/ha ([3]; 1000 g/ha): 100%
Cc1cc(-c2cnc(NC3CCCCC3)nc2C(F)(F)F)on1 [Compound 125] | 20 | 50 | 0 | 70 |  |  |  |  | 
Cc1cc(-c2cnc(NC3CC3)nc2C(F)(F)F)on1 [Compound 114] | 0 | 20 | 70 | 0 |  |  |  |  | 
Cc1cc(-c2cnc(NCc3ccccc3F)nc2C2CC2)on1 [Compound 81] |  |  |  |  | 30 | 80 | 80 | 98 | 
Cc1cc(-c2cnc(NCCc3c(C)noc3C)nc2C(C)(C)C)on1 [Compound 68] |  |  |  |  | 0 | 0 | 0 | 80 | 
COc1ccc(CCNc2ncc(-c3cc(C)no3)c(C3CC3)n2)cc1OC [Compound 78] |  |  |  |  | 40 | 80 | 99 | 95 | 
Cc1cc(-c2cnc(NCc3ccccc3F)nc2C(F)(F)F)on1 [Compound 113] | 0 | 20 | 0 | 30 |  |  |  |  | 
Cc1cc(-c2cnc(NCC3CCCC3)nc2C(C)C)on1 [Compound 107] | 0 | 50 | 50 | 30 |  |  |  |  | 
Cc1cc(-c2cnc(NC3CCC3)nc2C(F)(F)F)on1 [Compound 110] | 40 | 0 | 0 | 0 |  |  |  |  | 
